Laboratory results from patent US20070082061A1, “REDUCTION OF SALTINESS WITH SWEETENERS” (priority 2005, published 2007).
Several values for one entry are separate records, joined by “and”; a condition that tells them apart may be missing. Identical values can stand only once. Like-named read-outs stand apart in the source and are kept apart here. Where a SMILES comes first, the peptide text is derived from it.

Experiments:
[1] = Stability of sweeteners in FLEET PHOSPHO-SODA (Example 1)
Experimental: While it is possible to add the sweetener and/or flavoring a short time before consumption of a phosphate salt bowel cleanser and retain at least a portion of the palatability benefits, one goal of the present bowel cleansing compositions is to provide stable liquids having increased palatability. Thus, numerous sweeteners and flavorings were tested for stability in phosphate salt bowel cleanser.
Sucrose, Saccharin, Sucralose, Aspartame, Ace-K, Thaumatin (Talin), Neohesperidine Dihydrochalcone (NHDC), and Trehalose were tested for stability in FLEET® PHOSPHO-SODA®.

[2] = Taste tests to determine equivalent sweetness of sweeteners in a salty liquid (Example 4); assay type: in vivo, human
Experimental: Before a preferred sweetener for use in salty liquids could be determined, the amount of each sweetener required to provide an equivalent sweetness was determined. Multiple taste tests were performed comparing various concentrations of Sucralose, Ace-K, the 5:1 Ace-K/Sucralose blend, Saccharin, and sucrose in a salty liquid to determine an equivalent […].

[3] = Sweetener preference in diluted phosphate salt bowel cleanser, forty test subjects (Example 5); assay type: in vivo, human; conditions: scale 1 to 4, 60 mL phosphate salt bowel cleanser in 355 mL water
Experimental: Each solution was prepared by diluting 60 mL of the phosphate salt bowel cleanser from Example 2 in 355 mL of water and using either 0.05% Ace-K, 0.05% Sucralose, 0.08% saccharin, 0.05% of a 5:1 Ace-K/Sucralose blend, or 15% sucrose as the sweetener.

[4] = Sweetener concentration preference in diluted phosphate salt bowel cleanser, about 35 testers (Example 10); assay type: in vivo, human; conditions: for preferred sweetener concentration to decrease saltiness: in the phosphate salt bowel cleanser; for Average rating: scale 1 to 4, 4 highly preferred
Experimental: To confirm the correlation of FIG. 1 in a bowel cleanser with multiple sweeteners, approximately 35 testers were asked to select the most palatable solution from five possibilities. Each of the five solutions included 60 mL of the phosphate salt bowel cleanser from Example 2 in 355 mL of water. This solution has an equivalent saltiness to the 2% NaCI/water solution of Example 9. The first of the five solutions lacked any sweetener, while an increasing concentration of sweetener was added to the remaining four. Tests were performed using Sucralose, the 5:1 Ace-K/Sucralose blend, Ace-K, or Saccharin as the sweetener.
Tables 8, 9, 10, and 11, below, present the average test data for each sweetener, respectively.
The sweetener concentration for each data point corresponds to those in Tables 8 through 11, above, with higher values on the X-axis corresponding to higher sweetener concentrations.

[5] = considered to be; cited from earlier work
[6] = Mean acceptability ratings (Likert) of sweetener systems in phosphate salt bowel cleanser, 19 test subjects (Example 6); assay type: in vivo, human; conditions: at the same 0.38% concentration; systems with Ace-K
Experimental: A comparison between Saccharin/Ace-K and Sucralose/Ace-K was performed to determine which of these two sweetener systems most improved the palatability of a salty bowel cleanser. Table 3, below, provides the mean acceptability ratings for 19 test subjects who tasted 5:1 Saccharin/Ace-K and 5:1 Sucralose/Ace-K sweetener systems in 60 mL of the phosphate salt bowel cleanser from Example 2 in 355 mL of water.

[7] = Preference comparison of sweetened and unsweetened NaCl solutions and phosphate salt bowel cleansers (Example 8); assay type: in vivo, human
Description: To establish the reliability of the NaCI to bowel cleanser comparison, test subjects were asked to taste sweetened and unsweetened NaCI solutions and sweetened and unsweetened phosphate salt bowel cleansers. In this comparison of the sweetened and unsweetened NaCI solutions, out of 19 test subjects, 17 preferred the 2% NaCI solution that included 0.13% Sucralose. Furthermore, in the preference comparison of the sweetened and unsweetened phosphate salt bowel cleanser, 18 out of 20 test subjects preferred the phosphate salt bowel cleanser including 0.13% Sucralose. Therefore, the palatability increase provided by the Sucralose was similarly observed for the 2% NaCI/water solution and the phosphate salt bowel cleanser.

[8] = Preferred Sucralose concentration in water, 0.4% NaCl and 2% NaCl, approximately 40 testers (Example 9); assay type: in vivo, human; conditions: for Preferred Sucralose Concentration (wt %): correlation line of FIG. 1
Description: To determine the preferred concentration of Sucralose to reduce the saltiness of bowel cleansers having different perceived saltiness, varying concentrations of Sucralose were tasted in water, a 0.4% NaCI water solution, and a 2% NaCI water solution. For each solution, approximately 40 testers were asked to rate four different concentrations of Sucralose. Tables 4, 5, and 6, below, present the average test data for the water, 0.4% NaCI water solution, and 2% NaCI water solution, respectively.
FIG. 1 plots the increasing salinity of the solutions from Tables 4, 5, and 6 against the preferred concentration of Sucralose required to reduce the saltiness and increase the palatability of each solution. The graph establishes that as saltiness increases, the amount of sweetener that should be added to improve palatability linearly increases (R^2=0.997). The X-axis NaCI and the Y-axis Sucralose concentrations represented by the correlation line from FIG. 1 are presented below in Table 7.

[9] = Preferred Sucralose concentration in PEG based bowel cleanser NuLytely, thirty test subjects (Example 11); assay type: in vivo, human; conditions: for rating of individual test subject / rating, Average: scale 1 to 5, 5 highly preferred, PEG based bowel cleanser
Description: To determine the preferred concentration of Sucralose to reduce the saltiness of a PEG based bowel cleanser, test subjects were asked to taste unsweetened and three sweetened solutions of NuLytely®. NuLytely® is an aqueous liquid including approximately 420 g of 3350 PEG, 5.72 g of sodium bicarbonate, 11.2 g of NaCI, and 1.48 g of KCI. It has a similar perceived saltiness to the similar GoLytely®, which is an aqueous liquid including approximately 236 g of 3350 PEG, 22.74 g of sodium sulfate, 6.74 g of sodium bicarbonate, 5.86 g of NaCI, and 2.97 g of KCI. Either solution has a saltiness that approximates the 0.4% NaCl/water solution of Example 9.
Each of thirty test subjects was asked to rate the four solutions on a scale of 1 to 5 with 5 being highly preferred and 1 being least preferred. The first solution included no sweetener. The second, third, and fourth solutions included 0.01%, 0.025%, or 0.05% (w/w) of Sucralose, respectively.

Compound: O=C1NS(=O)(=O)c2ccccc21 [Saccharin]
- stability in FLEET PHOSPHO-SODA [1]: acceptable stability
- sweetener concentration providing an equivalent sweetness [2]: 0.083%
- average preference value ([3]; 0.08% sweetener): 2.5
- preferred sweetener concentration to decrease saltiness [4]: about 0.0832%
- Average rating ([4]; Saccharin 0.0208 % (w/w), phosphate salt bowel cleanser in water): 2.29
- Average rating ([4]; Saccharin 0.0416 % (w/w), phosphate salt bowel cleanser in water): 2.47
- Average rating ([4]; Saccharin 0.0832 % (w/w), phosphate salt bowel cleanser in water): 2.47
- Average rating ([4]; Saccharin 0.1664 % (w/w), phosphate salt bowel cleanser in water): 1.97
- sweetness relative to sucrose / sugar [5]: about 200 times

Compound: OC[C@H]1O[C@H](O[C@]2(CCl)O[C@H](CCl)[C@@H](O)[C@@H]2O)[C@H](O)[C@@H](O)[C@H]1Cl [Sucralose]
- stability in FLEET PHOSPHO-SODA [1]: acceptable stability
- sweetener concentration providing an equivalent sweetness [2]: 0.05%
- average preference value ([3]; 0.05% sweetener): 3.2
- preference for Sucralose over Saccharin [6]: up to 55%
- number of test subjects preferring the sweetened solution ([7]; out of 19 test subjects, 2% NaCl solution with 0.13% Sucralose vs unsweetened): 17
- number of test subjects preferring the sweetened cleanser ([7]; out of 20 test subjects, phosphate salt bowel cleanser with 0.13% Sucralose vs unsweetened): 18
- Preferred Sucralose Concentration (wt %) ([8]; NaCl Concentration 0.0 wt %): 0.011 wt %
- Preferred Sucralose Concentration (wt %) ([8]; NaCl Concentration 0.2 wt %): 0.015 wt %
- Preferred Sucralose Concentration (wt %) ([8]; NaCl Concentration 0.4 wt %): 0.019 wt %
- Preferred Sucralose Concentration (wt %) ([8]; NaCl Concentration 0.6 wt %): 0.023 wt %
- Preferred Sucralose Concentration (wt %) ([8]; NaCl Concentration 0.8 wt %): 0.027 wt %
- Preferred Sucralose Concentration (wt %) ([8]; NaCl Concentration 1.0 wt %): 0.031 wt %
- Preferred Sucralose Concentration (wt %) ([8]; NaCl Concentration 1.2 wt %): 0.035 wt %
- Preferred Sucralose Concentration (wt %) ([8]; NaCl Concentration 1.4 wt %): 0.038 wt %
- Preferred Sucralose Concentration (wt %) ([8]; NaCl Concentration 1.6 wt %): 0.042 wt %
- Preferred Sucralose Concentration (wt %) ([8]; NaCl Concentration 1.8 wt %): 0.046 wt %
- Preferred Sucralose Concentration (wt %) ([8]; NaCl Concentration 2.0 wt %): 0.050 wt %
- Preferred Sucralose Concentration (wt %) ([8]; NaCl Concentration 2.2 wt %): 0.054 wt %
- Preferred Sucralose Concentration (wt %) ([8]; NaCl Concentration 2.4 wt %): 0.058 wt %
- Preferred Sucralose Concentration (wt %) ([8]; NaCl Concentration 2.6 wt %): 0.062 wt %
- Preferred Sucralose Concentration (wt %) ([8]; NaCl Concentration 2.8 wt %): 0.066 wt %
- Preferred Sucralose Concentration (wt %) ([8]; NaCl Concentration 3.0 wt %): 0.070 wt %
- preferred level of Sucralose ([8]; in the 0.4% NaCl solution): 0.02%
- preferred level of Sucralose ([8]; in the 2% NaCl solution): 0.05%
- preferred level of Sucralose ([8]; in water alone): 0.005%
- preferred sweetener concentration to decrease saltiness [4]: 0.05%
- Likert preferability comparison of sweeteners (FIG. 2) ([4]; phosphate salt bowel cleanser, scale 1 to 5, 5 most preferred, in words): most preferred
- Average rating ([4]; Sucralose 0.0125 % (w/w), 60 mL phosphate salt bowel cleanser in 355 mL water): 2.56
- Average rating ([4]; Sucralose 0.025 % (w/w), 60 mL phosphate salt bowel cleanser in 355 mL water): 2.72
- Average rating ([4]; Sucralose 0.05 % (w/w), 60 mL phosphate salt bowel cleanser in 355 mL water): 3.22
- Average rating ([4]; Sucralose 0.1 % (w/w), 60 mL phosphate salt bowel cleanser in 355 mL water): 2.88
- preference of sweetened PEG based bowel cleanser compared with the unsweetened PEG cleanser ([9]; Sucralose-sweetened NuLytely): approximately 37%
- preferred Sucralose concentration ([9]; in the PEG based bowel cleanser): 0.025%
- rating of individual test subject ([9]; 0.01 % Sucralose): 4 (7×) and 2 (13×) and 3 (10×)
- rating, Average ([9]; 0.01 % Sucralose): 2.80
- rating of individual test subject ([9]; 0.025 % Sucralose): 4 (9×) and 2 (12×) and 3 (5×) and 1 (2×) and 5 (2×)
- rating, Average ([9]; 0.025 % Sucralose): 2.90
- rating of individual test subject ([9]; 0.05 % Sucralose): 2 (11×) and 1 (8×) and 5 (2×) and 4 (7×) and 3 (2×)
- rating, Average ([9]; 0.05 % Sucralose): 2.47
- sweetness relative to sucrose / sugar [5]: about 600 times

Compound: Thaumatin [Thaumatin (Talin)]
- stability in FLEET PHOSPHO-SODA [1]: effectiveness diminished over time

Compound: CC1=CC(=O)NS(=O)(=O)O1 [Ace-K, acesulfame potassium]
- stability in FLEET PHOSPHO-SODA [1]: acceptable stability
- sweetener concentration providing an equivalent sweetness [2]: 0.05%
- average preference value ([3]; 0.05% sweetener): 2.45
- preferred sweetener concentration to decrease saltiness [4]: 0.05%
- Average rating ([4]; Ace-K 0.025 % (w/w), phosphate salt bowel cleanser in water): 1.88
- Average rating ([4]; Ace-K 0.05 % (w/w), phosphate salt bowel cleanser in water): 2.63
- Average rating ([4]; Ace-K 0.1 % (w/w), phosphate salt bowel cleanser in water): 2.16
- Average rating ([4]; Ace-K 0.2 % (w/w), phosphate salt bowel cleanser in water): 2.16
- sweetness relative to sucrose / sugar [5]: about 200 times

Compound: COc1ccc(CCC(=O)c2c(O)cc(O[C@@H]3O[C@H](CO)[C@@H](O)[C@H](O)[C@H]3O[C@@H]3O[C@@H](C)[C@H](O)[C@@H](O)[C@H]3O)cc2O)cc1O [Neohesperidine Dihydrochalcone (NHDC), Neohesperidine Dihydrochalcone]
- stability in FLEET PHOSPHO-SODA ([1]; sweetener in phosphate salt laxative solution): effectiveness diminished over time

Compound: OC[C@H]1O[C@H](O[C@H]2O[C@H](CO)[C@@H](O)[C@H](O)[C@H]2O)[C@H](O)[C@@H](O)[C@@H]1O [Trehalose]
- stability in FLEET PHOSPHO-SODA [1]: effectiveness diminished over time

Compound: COC(=O)[C@H](Cc1ccccc1)NC(=O)[C@@H](N)CC(=O)O [Aspartame] (HELM PEPTIDE1{D.F.[CO[*:1]]}$$$$V2.0)
- stability in FLEET PHOSPHO-SODA [1]: effectiveness diminished over time

Compound: OC[C@H]1O[C@@](CO)(O[C@H]2O[C@H](CO)[C@@H](O)[C@H](O)[C@H]2O)[C@@H](O)[C@@H]1O [Sucrose, reference compound]
- stability in FLEET PHOSPHO-SODA [1]: effectiveness diminished over time
- sweetener concentration providing an equivalent sweetness [2]: 15%
- average preference value ([3]; 15% sweetener): 3.3
